From patent US10758639B2, “Methods for the treatment of peri-implantitis” (POLYPID LTD., priority 2014, dated 2020)
“And” between values parts separate entries of the source, which are not always exact repeats. Equal values may be shown once.

Tested on: Staphylococcus aureus biofilm (ATCC 29213)
Test: MBEC P&G assay: eradication of an established (preformed) biofilm
Assay type: cell-based
Conditions: for Log Reduction (Log R): vs. GC (growth control)
Description: The effectiveness of tri-calcium phosphate granules coated with a matrix composition according to embodiments of the invention in eradicating established biofilm was measured using the MBEC™ (Minimum Biofilm Eradication Concentration) Physiology and Genetics Assay.
MBEC™ Test Method Overview: MBEC™ test method specifies the operational parameters required to grow and treat different bacterial biofilms in a high throughput screening assay. The assay device consists of a plastic lid with ninety-six (96) pegs and a corresponding receiver plate with ninety-six (96) individual wells that have a maximum 200 μL working volume. Biofilm is established on the pegs in a batch culture based model (i.e., no flow of nutrients into or out of an individual well) with gentle mixing. The established biofilm is transferred to a new receiver plate for disinfectant efficacy testing.
Test Organisms: Staphylococcus aureus (an osteomyelitis-related strains); source: ATCC 29213; Dilution/Challenge Media: 1,000×TSB+10% human serum 24 hrs; Growth Media/agar: Tryptic Soy Broth/Tryptic Soy agar for 24 hrs Aerobic cond.
TEST METHOD overview: The experimental process for high-throughput antimicrobial susceptibility testing using the hydroxyapatite coated MBEC™ P&G assay. This standard protocol was broken into a series of small steps, each of which is detailed in the sections below.
1. Culture/Inoculum Preparation:
Using a cryogenic stock (at −70° C.), a first sub-culture of Staphylococcus aureus was streaked out on OSA (organism specific agar). The plates were incubated at appropriate growth conditions for 20±2.0 hours and further stored at 4° C.
A second sub-culture taken from the first sub-culture was streaked out on OSA. The plates were incubated at appropriate growth conditions for 20±2.0 hours. An isolated colony from the second sub-culture was aseptically removed from the OSA plate and inoculated into 50 mL of sterile bacterial liquid growth broth, followed by incubation appropriate growth conditions for 20±2.0 hours (at 150 rpm).
The inoculum was adjusted to an approximate cell density of 10^6 CFU/mL by diluting in OSB according to table 1.
Samples (100 μL) of the diluted organism were used for an inoculum check by serially diluting and spot plating on OSA in triplicate.
Preparation of the Challenge Plate:
150 μL of the remaining diluted organism were placed in each of the corresponding wells of an MBEC™ P&G device except the sterility controls (Table 5). The device was placed on an orbital shaker (110 RPM) in a humidified incubator at 37±1° C.
Antimicrobial Challenge for Preformed Biofilm:
The biofilm formed on the lid of the MBEC device was rinsed by dipping the lid into saline (˜30 seconds) to remove planktonic cells. The lid was then put on top of the challenge plate and incubated on a rotary shaker at 110 rpm at 35±2° C. for 24±2 hours.
After incubation (specified above), planktonic cells were rinsed off the biofilm by dipping the lid into saline (˜20-30 seconds). The lid was then transferred to a neutralizer/recovery plate and put in a sonicator (˜30 minutes) to dislodge surviving biofilm.
Following sonication, 100 μL from each well of the MBEC™ plate, were put into the first 12 empty wells of the first row of a 96 well-micro titer plate and were further diluted by 10 fold down each of the 8 rows (10^0-10^7 dilution). 5 μL from each well were then used for spotting prepared OSA plates. The agar plates were incubated at 37±1° C. and counted after approximately 24-48 hours of incubation. The arithmetic mean of the number of colonies counted on the plates was calculated.
100 μL of the sterile neutralizer was added to each well of the recovery plate to top up the volume back to 200 μL. The refilled plate is incubated at 35±2° C. for 24±2 hours, after which the plates were analyzed using a plate reader.
The log density for one peg was calculated as follows:
LOG10 (CFU/peg)=LOG10 [(XB) (D)] where: X=mean CFU; B=volume plated (0.02 mL) and D=dilution. […]

Gentamicin [D]
Average Log10 CFU/peg recoveries (0.5 μg): 3.48 Log10 CFU/peg
Log10 CFU/peg recoveries, replicates 1-3 (0.5 μg): 3.90 Log10 CFU/peg and 2.90 Log10 CFU/peg and 3.64 Log10 CFU/peg
Average Log10 CFU/peg recoveries (1.0 μg): 3.21 Log10 CFU/peg
Log10 CFU/peg recoveries, replicates 1-3 (1.0 μg): 4.72 Log10 CFU/peg and 2.60 Log10 CFU/peg and 2.30 Log10 CFU/peg
Average Log10 CFU/peg recoveries (2.0 μg): 1.69 Log10 CFU/peg
Log10 CFU/peg recoveries, replicates 1-3 (2.0 μg): 2.30 Log10 CFU/peg and 0.00 Log10 CFU/peg and 2.78 Log10 CFU/peg
Average Log10 CFU/peg recoveries (4.0 μg): 1.31 Log10 CFU/peg
Log10 CFU/peg recoveries, replicates 1-3 (4.0 μg): 1.61 Log10 CFU/peg and 2.30 Log10 CFU/peg and 0.00 Log10 CFU/peg
Average Log10 CFU/peg recoveries (8.0 μg): 0.00 Log10 CFU/peg
Log10 CFU/peg recoveries, replicates 1-3 (8.0 μg): 0.00 Log10 CFU/peg
Average Log10 CFU/peg recoveries (16 μg): 0.00 Log10 CFU/peg
Log10 CFU/peg recoveries, replicates 1-3 (16 μg): 0.00 Log10 CFU/peg
Average Log10 CFU/peg recoveries (32 μg): 0.00 Log10 CFU/peg
Log10 CFU/peg recoveries, replicates 1-3 (32 μg): 0.00 Log10 CFU/peg
Log Reduction (Log R) (0.5 μg): 1.11 LOG10
Log Reduction (Log R) (1.0 μg): 1.38 LOG10
Log Reduction (Log R) (2.0 μg): 2.90 LOG10
Log Reduction (Log R) (4.0 μg): 3.29 LOG10
Log Reduction (Log R) (8.0 μg): 4.59 LOG10
Log Reduction (Log R) (16 μg): 4.59 LOG10
Log Reduction (Log R) (32 μg): 4.59 LOG10
